Our source for the melting point values is US6521649B1 (priority 1995, dated 2003).

Molecules are shown by their SMILES. Structures can show the parent of a compound that is named as a salt.

As a reminder, the melting point is the temperature, or range, at which the solid turns liquid. Turning to `CCc1nnsc1C(=O)O` [compound 178, t-butylammonium 4-ethyl-1,2,3-thiadiazole-5-carboxylate], the melting point lay within 105 to 107 °C.

On to `CCc1nnsc1C(=O)O` (as salt: sodium) [compound 176, sodium 4-ethyl-1,2,3-thiadiazole-5-carboxylate], for which the melting point was 250 °C (dec.).
